Marks after values point to notes of the source that are not given here.

Series [1] in a line: Salt screen using solutions in ethanol, appearance/colour on storage. The note with it: light-protected; for Results at 18 h: ethanol solution, storage overnight at RT, Ar; for Result at 6 days: solvent removed, stored at RT under Ar, appearance after addition of EtOH.
A short description of another series: Exposure of HBr1 to AAC. The class given is physicochemical. The note with it: AAC for two days. The source says:
HBr1 was unstable upon exposure to AAC for two days and became deliquescent.

For series [2] the following is noted: cited from earlier work.
Series [3] is described as follows: Analytical characterization of dosing solutions used in the PK study. The note with it: after 2 hours on the bench at room temperature, PBS, depending on the concentration. In kind it is physicochemical. The method, then:
(§1) The study was conducted in male/female CD rats. Test articles were formulated fresh in PBS. Psilocin and Psilocybin were administered IV and PO. Plasma samples were analyzed for psilocin and psilocybin (group 2).
(§2) FIGS. 2A-2C show PK characteristics of psilocin and psilocybin after IV dosing. FIGS. 3A-3B show PK characteristics of psilocin and psilocybin after PO dosing. FIGS. 4A-4B show psilocin and psilocybin after IV and PO dose.
After IV administration, psilocybin is detectable in plasma for 15 minutes. PO administration of psilocin and psilocybin results in similar PK values, including tmax, t1/2, AUC, and bioavailability. […] Low stability of psilocin in aqueous solutions could be a contributing factor to observed differences. […] Stabilization of psilocin provides viable, stable formulations and lower variability of dosing solutions, resulting in a better PK, such as compared to psilocybin.

Series [4] can be described thus: PK evaluation of psilocin and psilocybin after IV and PO administration in rats. The class given is in vivo, CD rats. The note with it: for PK values, including Cmax and AUC and Cl: IV administration; for PK values, including Cmax and AUC and Cl / PK values, including tmax, t1/2, AUC, and bioavailability: psilocin versus psilocybin; for PK values, including tmax, t1/2, AUC, and bioavailability: PO administration. The method, then:
PK Evaluation of Psilocin and Psilocybin after IV and PO Administration in Rats
as §1, §2

Series [5] is described as follows: HPLC solution stability and stress conditions, free base versus tartrate salt.
The conditions of series [6]: protected from light, over 14 days; cited from earlier work.
Another series relates to intestinal epithelia. The note with it: cited from earlier work.
For series [7] the following is noted: after IV administration of psilocybin; cited from earlier work.
Series [8] in a line: Analytical characterization of a psilocin tartrate sample (solid state). The class given is physicochemical. The note with it: OM, XRPD, DSC, TGA, DVS. An excerpt:
One sample of psilocin tartrate (lot 16782-15C) was submitted for optical microscopy (OM), X-ray powder diffraction (XRPD), differential scanning calorimetry (DSC), thermogravimetric analysis (TGA), dynamic vapor sorption/desorption (DVS), and ^1H NMR spectroscopy.

A short description of series [9]: Dynamic vapor sorption/desorption (DVS) analysis. The class given is physicochemical. Here is the method: The weight versus time and percent weight change versus percent relative humidity (RH) curves from the DVS analysis of psilocin tartrate lot 16782-15C is presented in FIGS. 13 and 14, respectively.
DVS analysis was carried out using a TA Instruments Q5000 Dynamic Vapor Sorption analyzer. The instrument was calibrated with standard weights and a sodium bromide standard for humidity. Approximately 12 mg of the powder sample was loaded into a metal-coated quartz pan for analysis. The sample was analyzed at 25° C. after being equilibrated to […] in 10% RH steps from 5 to 95% RH (adsorption cycle) and from 95 to 5% RH (desorption cycle). The movement from one step to the next occurred either after satisfying the equilibrium criterion of 0.01% weight change in 5 minutes or, if the equilibrium criterion was not met, after 90 minutes. The percent weight change values were calculated using Microsoft Excel® 2016.

Take `O=C1O[C@H]([C@@H](O)CO)C(O)=C1O` [Ascorbic]: in series [1], the “Results at 18 h” value is on record as 0 and the “Result at 6 days” value is recorded as “C + solid”.
In the case of `Br.CN(C)CCc1c[nH]c2cccc(O)c12` [HBr1], in “Exposure of HBr1 to AAC”, the “stability upon exposure to AAC” value is recorded as “unstable”.
Regarding `O=C(O)CC(=O)O` [Malonic], in series [1], the “Results at 18 h” value was “F ^c” and the “Result at 6 days” value was “↑C”.
With `O=C(O)c1ccccc1O` [Salicylic], in series [1], the “Results at 18 h” value came out at 0 and the “Result at 6 days” value is reported as “↑C”.
Taken in the same sequence, the figures for `O=C(O)CCC(=O)O` [Succinic] were “F ^c” and “↑C”.
As to `CN(C)CCc1c[nH]c2cccc(O[C@@H]3O[C@H](C(=O)O)[C@@H](O)[C@H](O)[C@H]3O)c12` [psilocin glucuronide], in series [2] (one week, whole blood at room temperature and deep frozen samples), the “short-term stability compared with psilocin” value is “better than that of psilocin”. Further, the “long-term stability compared with psilocin” value in [2] (six months, deep frozen serum and urine samples) was “greater long-term stability”.
A word on the Cmax: it is the highest concentration seen after dosing. With `CN(C)CCc1c[nH]c2cccc(O)c12` [psilocin, 4-hydroxy-N,N-dimethyltryptamine], the “degradation of dosing solutions” value in series [3] was 30%-70%. Further, in series [4], the “PK values, including Cmax and AUC and Cl” value is on record as “almost identical”; the “PK values, including tmax, t1/2, AUC, and bioavailability” value is “similar”. Further, in series [4] (both sexes, CD, rat, PO administration of psilocin, plasma psilocin, read-out: Measured Cmax), the maximum concentration (Cmax) is 153 ng/mL. Moreover, in [5] (FIG. 20), the “stability under a variety of stress conditions” value is listed as “limited stability”. Moreover, the psilocin lost entry in [2] (biological samples with addition of 25 mM ascorbic acid) is reported as “greater than 5%”. For the same molecule, the peak loss in series [6] is given as 50%.
For the molecule `CN(C)CCc1c[nH]c2cccc(OP(=O)(O)O)c12` [psilocybin, 4-phosphoryloxy-N, N-dimethyltryptamine, reference compound], the permeability result with intestinal epithelia was “not permeable”. For the same molecule, in [4], the “PK values, including Cmax and AUC and Cl” value was “almost identical”; the “PK values, including tmax, t1/2, AUC, and bioavailability” value was “similar”. Moreover, the “time psilocybin is detectable in plasma” value in [4] (after IV administration) came to 15 min. Besides, the “inter-individual variability of psilocin concentrations” value in series [7] is reported as “over 3 fold”.
Adipic: in [1], the “Result at 6 days” value is given as “↑C”.
On to Fumaric, for which the “Results at 18 h” value in [1] is listed as “F ^c”.
The same measure, in the same setting: in the case of L-Tartaric it was 0 ^d.
Regarding Maleic, in series [1], the “Results at 18 h” value is 0 and the “Result at 6 days” value is reported as “↑C”.
For Mandelic, the “Results at 18 h” value in [1] amounted to 0.
On the same count and under the same terms, for Oxalic the value was 0.
For the molecule psilocin tartrate, in series [8], the solid-state stability result is “stable crystalline solid”. In series [9], the hygroscopicity entry is listed as “moderately hygroscopic”. The “wt. loss upon equilibration at 5% RH” value in series [9] (25° C.) is reported as 0.12% wt. loss upon equilibration at 5% RH. The “wt. gain from 5 to 95% RH” value in series [9] (25° C., adsorption cycle) is 4.64% wt. gain from 5 to 95% RH. Besides, the “wt. loss from 95 to 5% RH” value in [9] (25° C., desorption cycle) is listed as 4.67% wt. loss from 95 to 5% RH. In series [5] (HPLC, FIG. 21), the “stability in solution compared to the free base” value is reported as “improved stability”.
